How the values were obtained:
DmMmp2 = target: T1, DmMmp2 (Drosophila melanogaster, UniProt Q8MPP3); assay: gelatin zymography of FLAG immunoprecipitate; assay type: biochemical; settings: GM6001 25 uM in sample before electrophoresis, 10 uM in renaturing and developing buffers; gelatin substrate; complete inhibition, no constant
T1 construct: gene Mmp2; full-length cDNA, 3xFLAG inserted after S710 (before GPI-anchor signal), expressed in S2 cells, immunoprecipitated from conditioned media (released form); ~110 kDa in lysate
T1 sequence (Q8MPP3 137-738): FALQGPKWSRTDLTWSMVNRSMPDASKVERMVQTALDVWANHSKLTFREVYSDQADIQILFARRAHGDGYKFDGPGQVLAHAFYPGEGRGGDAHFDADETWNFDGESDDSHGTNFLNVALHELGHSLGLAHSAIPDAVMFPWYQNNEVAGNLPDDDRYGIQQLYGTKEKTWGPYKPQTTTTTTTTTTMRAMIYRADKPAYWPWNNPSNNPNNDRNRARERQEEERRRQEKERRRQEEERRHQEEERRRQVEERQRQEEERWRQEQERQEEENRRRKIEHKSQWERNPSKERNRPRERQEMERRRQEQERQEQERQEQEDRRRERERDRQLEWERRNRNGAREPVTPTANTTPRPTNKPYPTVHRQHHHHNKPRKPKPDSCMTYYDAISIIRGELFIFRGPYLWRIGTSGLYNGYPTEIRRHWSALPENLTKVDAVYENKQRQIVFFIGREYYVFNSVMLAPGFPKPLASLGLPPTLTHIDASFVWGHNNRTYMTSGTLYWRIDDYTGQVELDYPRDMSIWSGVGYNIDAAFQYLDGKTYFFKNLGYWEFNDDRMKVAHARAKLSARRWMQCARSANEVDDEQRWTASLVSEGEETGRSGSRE

DmMmp1 (Mmp1-PF) = target: T2, DmMmp1 (Mmp1-PF) (Drosophila melanogaster, UniProt Q8MLN6); assay type: biochemical; settings: GM6001 25 uM in sample before electrophoresis, 10 uM in renaturing and developing buffers; casein substrate; complete inhibition, no constant
T2 construct: full-length cDNA (541 residues), C-terminal FLAG kept, expressed in S2 cells, immunoprecipitated from conditioned media; secreted form has lost pro-domain; ~65 kDa in lysate
T2 sequence (Q8MLN6 109-541): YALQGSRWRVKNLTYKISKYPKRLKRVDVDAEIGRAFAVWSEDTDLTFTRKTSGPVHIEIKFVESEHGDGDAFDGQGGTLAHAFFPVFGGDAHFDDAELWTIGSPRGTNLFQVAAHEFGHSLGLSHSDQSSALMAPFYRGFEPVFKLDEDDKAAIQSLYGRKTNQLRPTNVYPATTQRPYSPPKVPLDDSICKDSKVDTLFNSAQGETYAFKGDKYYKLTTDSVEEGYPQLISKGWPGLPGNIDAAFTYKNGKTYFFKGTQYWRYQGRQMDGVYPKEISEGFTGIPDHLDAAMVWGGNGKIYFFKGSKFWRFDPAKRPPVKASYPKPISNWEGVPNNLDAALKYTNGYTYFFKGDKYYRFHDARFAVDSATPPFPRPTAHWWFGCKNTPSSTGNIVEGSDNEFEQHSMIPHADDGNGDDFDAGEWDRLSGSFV

SMILES: CNC(=O)[C@H](Cc1c[nH]c2ccccc12)NC(=O)[C@@H](CC(=O)NO)CC(C)C [GM6001]
- gelatin zymography of FLAG immunoprecipitate (DmMmp2): GM6001 completely inhibited Mmp1 and Mmp2 catalytic activity on zymograms
- casein zymography of FLAG immunoprecipitate (DmMmp1 (Mmp1-PF)): GM6001 completely inhibited Mmp1 and Mmp2 catalytic activity on zymograms

From article PMC5353688, “Both Drosophila matrix metalloproteinases have released and membrane-tethered forms but have different substrates” (Scientific Reports, 2017)
